{"source": "patent US8834899B2", "about": "“Photodynamic therapy-generated mesothelioma vaccine” (The Trustees of the University of Pennsylvania, priority 2006, dated 2014)", "test_system": "AB1 murine mesothelioma cells", "experiment": "Clonogenic assay after Photofrin PDT", "format": "cell-based", "conditions": "for % Cell Kill / Clonogenic Results (colonies) / Clonogenic Results, Averaged numbers: Photofrin 24 hours", "procedure": "Initial tests were conducted in order to explore the possibility of generating inactivated whole tumor cells from PDT. Three variables were manipulated: Photofrin® incubation time, Photofrin® dosage, and light dosage. Since Photofrin® incubation times may determine cellular uptake—either just within the membrane or further into the cytoplasm—the cells were incubated for either 3-hours or 24-hours, followed by a 3-hour incubation in drug-free media. Second, cells were given a Photofrin dose of either 10 μg/mL or 25 μg/mL. Dosages were determined by consulting both past papers and another PDT research laboratory. Lastly, light dosage was varied. The light source was a Laserscope KTP/YAG laser with a 630 nm Dye Module. […] Laser light dosage was measured in fluence or j/cm^2. Light dosages ranged from 0.125 j/cm^2 to 1.0 j/cm^2.\nLater in the study, dose-response curves followed by clonogenic assays, were performed in order to determine appropriate PDT light dosages for complete cell killing. In these tests, cells were incubated for 24-hours and exposed to high light dosages ranging from 1.0 j/cm^2 to 3.0 j/cm^2. The clonogenic assay measured cell plating efficiency and proliferation and involved plating cells at very low concentrations. After one week, resultant colonies that had formed were counted and compared against controls that had not been lit.\nAll three factors were modified with the intent of producing complete cell death. Cells were incubated in 25 μg/mL of Photofrin® for 3 hours and lit with 2.0 j/cm^2 of light at 630 nm. […] A clonogenic assay was performed to explore the dose-response relationship at this level of light, and the results are summarized in Table 2. For the assay, cells were incubated in 25 μg/mL of Photofrin® for 24 hours and lit with 1.0 to 3.0 j/cm^2 of light. […] After this test, PDT vaccines were generated by incubating cells in 25 μg/mL of Photofrin® for 24 hours and lit with 3.0 j/cm^2 of light.", "key": {"[1]": {"conditions": "250 cells per plate, 1.5 j/cm^2"}, "[2]": {"conditions": "500 cells per plate, 1.0 j/cm^2"}, "[3]": {"conditions": "500 cells per plate, 1.5 j/cm^2"}, "[4]": {"conditions": "500 cells per plate, 2.0 j/cm^2"}, "[5]": {"conditions": "500 cells per plate, 2.0 j/cm^2 (100 mill), lit at high cell concentration"}, "[6]": {"conditions": "500 cells per plate, 2.5 j/cm^2"}, "[7]": {"conditions": "500 cells per plate, 3.0 j/cm^2"}, "[8]": {"conditions": "500 cells per plate, 3.0 j/cm^2 (100 mill), lit at high cell concentration"}, "[9]": {"conditions": "1000 cells per plate, 1.0 j/cm^2"}, "[10]": {"conditions": "1000 cells per plate, 1.5 j/cm^2"}, "[11]": {"conditions": "1000 cells per plate, 2.0 j/cm^2"}, "[12]": {"conditions": "1000 cells per plate, 2.0 j/cm^2 (100 mill), lit at high cell concentration"}, "[13]": {"conditions": "1000 cells per plate, 2.5 j/cm^2"}, "[14]": {"conditions": "1000 cells per plate, 3.0 j/cm^2"}, "[15]": {"conditions": "1000 cells per plate, 3.0 j/cm^2 (100 mill), lit at high cell concentration"}}}
{"substance": "Photofrin", "values": [{"measurement": "cell kill in clonogenic assay (in words)", "setting": "25 μg/mL Photofrin 24 hours, all conditions, light 1.0 to 3.0 j/cm^2 at 630 nm", "value": "nearly complete cell kill in all conditions"}, {"measurement": "% Cell Kill", "setting": "[1]", "value": 100, "unit": "%"}, {"measurement": "Clonogenic Results (colonies)", "setting": "[1]", "value": 0}, {"measurement": "Clonogenic Results, Averaged numbers", "setting": "[1]", "value": 0.00}, {"measurement": "% Cell Kill", "setting": "[2]", "value": 100, "unit": "%"}, {"measurement": "Clonogenic Results (colonies)", "setting": "[2]", "value": 0}, {"measurement": "Clonogenic Results, Averaged numbers", "setting": "[2]", "value": 0.00}, {"measurement": "% Cell Kill", "setting": "[3]", "value": 100, "unit": "%"}, {"measurement": "Clonogenic Results (colonies)", "setting": "[3]", "value": 0}, {"measurement": "Clonogenic Results, Averaged numbers", "setting": "[3]", "value": 0.00}, {"measurement": "% Cell Kill", "setting": "[4]", "value": 100, "unit": "%"}, {"measurement": "Clonogenic Results (colonies)", "setting": "[4]", "value": 0}, {"measurement": "Clonogenic Results, Averaged numbers", "setting": "[4]", "value": 0.00}, {"measurement": "% Cell Kill", "setting": "[5]", "value": 100, "unit": "%"}, {"measurement": "Clonogenic Results (colonies)", "setting": "[5]", "value": 0}, {"measurement": "Clonogenic Results, Averaged numbers", "setting": "[5]", "value": 0}, {"measurement": "% Cell Kill", "setting": "[6]", "value": 100, "unit": "%"}, {"measurement": "Clonogenic Results (colonies)", "setting": "[6]", "value": 0}, {"measurement": "Clonogenic Results, Averaged numbers", "setting": "[6]", "value": 0}, {"measurement": "% Cell Kill", "setting": "[7]", "value": 100, "unit": "%"}, {"measurement": "Clonogenic Results (colonies)", "setting": "[7]", "value": 0}, {"measurement": "Clonogenic Results, Averaged numbers", "setting": "[7]", "value": 0}, {"measurement": "% Cell Kill", "setting": "[8]", "value": 99.67, "unit": "%"}, {"measurement": "Clonogenic Results, Averaged numbers", "setting": "[8]", "value": 0.33}, {"measurement": "% Cell Kill", "setting": "[9]", "value": 99.85, "unit": "%"}, {"measurement": "Clonogenic Results, Averaged numbers", "setting": "[9]", "value": 0.33}, {"measurement": "% Cell Kill", "setting": "[10]", "value": 100.00, "unit": "%"}, {"measurement": "Clonogenic Results (colonies)", "setting": "[10]", "value": 0}, {"measurement": "Clonogenic Results, Averaged numbers", "setting": "[10]", "value": 0.00}, {"measurement": "% Cell Kill", "setting": "[11]", "value": 99.85, "unit": "%"}, {"measurement": "Clonogenic Results, Averaged numbers", "setting": "[11]", "value": 0.33}, {"measurement": "% Cell Kill", "setting": "[12]", "value": 100, "unit": "%"}, {"measurement": "Clonogenic Results (colonies)", "setting": "[12]", "value": 0}, {"measurement": "Clonogenic Results, Averaged numbers", "setting": "[12]", "value": 0}, {"measurement": "% Cell Kill", "setting": "[13]", "value": 100, "unit": "%"}, {"measurement": "Clonogenic Results (colonies)", "setting": "[13]", "value": 0}, {"measurement": "Clonogenic Results, Averaged numbers", "setting": "[13]", "value": 0}, {"measurement": "% Cell Kill", "setting": "[14]", "value": 100, "unit": "%"}, {"measurement": "Clonogenic Results (colonies)", "setting": "[14]", "value": 0}, {"measurement": "Clonogenic Results, Averaged numbers", "setting": "[14]", "value": 0}, {"measurement": "% Cell Kill", "setting": "[15]", "value": 99.70, "unit": "%"}, {"measurement": "Clonogenic Results, Averaged numbers", "setting": "[15]", "value": 0.67}]}
